From PMC12110735 (Diseases, 2025)
“Also recorded” adds a separate entry of the source. Like-named read-outs stand apart in the source and are kept apart here.

Assays:
[1] = tested on: leukemic cell line (L1210); parameters: method as in PMID 12612427; conditions: cited from earlier work
[2] = tested on: non-tumorigenic breast epithelial cell line MCF12A; test: Cytotoxicity, resazurin assay, 96 h, MCF-12A; format: cell-based; conditions: MCF-12A cells; for IC50: 96 h, read-out: MCF-12A (IC50 and SD)
Protocol: (§1) The cytotoxicity and IC50 values of the isolated compounds were evaluated in three cell lines, namely, the HCC70 basal triple-negative breast cancer (TNBC) cell line (ATCC: CRL-2315), the hormone receptor-positive breast cancer MCF-7 cell line (ATCC: HTB-22) and the non-tumorigenic breast epithelial cell line MCF12A (ATCC: CRL-10782) using the resazurin assay. The cells were seeded at a density of 5000 cells/well in a 96-well plate and allowed to attach overnight at 37 °C and 9% CO2. The cells were then treated with DMSO as vehicle control (0.2% vM), paclitaxel (Sigma-Aldrich, St. Louis, USA) as a positive control (0.32 to 200 nm) and a six-point range concentration (0.32 to 200 μM) of the isolated pure compounds and incubated for 96 h at 37 DC in a humidified 9% CO2 incubator. Resazurin ([…]) was added to the cells, and the cells were incubated for 2–4 h at 37 °C in 9% CO2. Fluorescence readings were obtained on a Spectramax spectrophotometer (excitation and emission wavelength set to 560 nm and 590 nm, respectively). The experiment was performed in triplicate, and the data was analyzed using GraphPad Prism Inc., (Version 4, USA) with a half-maximal inhibitory concentration (IC50 values) determined by non-linear regression. A selectivity index (SI) was determined for each compound to determine its therapeutic significance in cancerous cells. It was calculated as follows: Selectivity index (SI) = IC50 of compound in MCF12A/IC50 of compound in cancer line
(§2) SI function is a crucial metric for assessing a compound’s potential safety, with values below 1 indicating toxicity and those above 10 implying high selectivity for further investigation.

[3] = tested on: hormone receptor-positive breast cancer MCF-7 cell line; test: Cytotoxicity, resazurin assay, 96 h, MCF-7; format: cell-based; conditions: for IC50 / cytotoxic activity against MCF-7 (in words): MCF-7 cells; for IC50: 96 h, read-out: MCF-7 (IC50 and SD); for Selectivity Index (SI) MCF-7: IC50 in MCF12A / IC50 in MCF-7
Protocol: as §1, §2

[4] = tested on: HCC70 basal triple-negative breast cancer (TNBC) cell line; test: Cytotoxicity, resazurin assay, 96 h, HCC70; format: cell-based; conditions: for IC50: 96 h, read-out: HCC70 (IC50 and SD); for Selectivity Index (SI) HCC70: IC50 in MCF12A / IC50 in HCC70
Protocol: as §1, §2

NF-kappa B = conditions: cited from earlier work
[5] = Homo sapiens, MCF-12A, resazurin, triplicate
[6] = Homo sapiens, MCF7, 96 h, resazurin, triplicate
[7] = Homo sapiens, HCC70, 96 h, HCC70 cells, resazurin, triplicate
[8] = resazurin, triplicate, listed as 13R-Nepetaefolin (2)

In the case of `C[C@@]12CCC[C@]3(C)C(=O)O[C@H](C[C@@]4(CO4)[C@]1(O)CCc1ccoc1)[C@H]23` [Compound 5, leonotin], the “cytotoxic activity against leukemic cell lines (in words)” value [1] is listed as “cytotoxic activity”.

For `CC(=O)O[C@@H]1C[C@@]2(CO2)[C@](O)(CCc2ccoc2)[C@]23CCC[C@](C)(C(=O)OC2)[C@H]13` [Compound 4, nepetaefuran], the IC50 [2, 5] was > 200000 nM, the “cytotoxic activity against MCF-12A (in words)” value [2] was “no cytotoxic activity” and the IC50 [3, 6] was > 200000 nM. The “cytotoxic activity against MCF-7 (in words)” value [3] was “no cytotoxic activity”, the IC50 [4, 7] was 73700 ± 1100 nM and the “Selectivity Index (SI) HCC70” value ([4]; listed as nepetaefuran (4)) was 2.715. For the same compound, the “anti-inflammatory activity, LPS pathway / NF-kappa B transactivation (in words)” value (NF-kappa B) was “suppression of the transactivation of NF-kappa B”.

In the case of `CC(=O)O[C@H]1C(=O)[C@@]2(C)[C@H]([C@H](OC(=O)c3ccccc3)[C@]3(O)C[C@H](OC(=O)[C@H](O)[C@@H](NC(=O)c4ccccc4)c4ccccc4)C(C)=C1C3(C)C)[C@]1(OC(C)=O)CO[C@@H]1C[C@@H]2O` [Paclitaxel, paclitaxel, reference compound], the IC50 ([2]; Homo sapiens, MCF-12A, positive control in nM) is reported as 16.2 ± 1.08 nM, the IC50 ([3]; Homo sapiens, MCF7, 96 h, positive control in nM) is reported as 2.41 ± 1.11 nM and the “Selectivity Index (SI) MCF-7” value [3] is reported as 6.71. For the same compound, the IC50 ([4]; Homo sapiens, HCC70, 96 h, HCC70 cells, positive control in nM) was 3.92 ± 1.03 nM and the “Selectivity Index (SI) HCC70” value [4] was 4.12.

For `CC(=O)O[C@@H]1C[C@@H](C)[C@](O)(CCc2ccoc2)[C@]23CCC[C@](C)(C(=O)OC2)[C@H]13` [Compound 3, dubiin], the IC50 [2, 5] was > 200000 nM, the “cytotoxic activity against MCF-12A (in words)” value [2] was “non-toxic” and the IC50 [3, 6] was > 200000 nM. The “cytotoxic activity against MCF-7 (in words)” value [3] was “non-toxic”, the IC50 [4, 7] was 127900 ± 1230 nM and the “Selectivity Index (SI) HCC70” value ([4]; listed as dubiin (3)) was 1.564.

For leonotinin [Compound 6], the “cytotoxic activity against leukemic cell lines (in words)” value [1] is given as “cytotoxic activity”, the “cytotoxic activity against MCF-12A (in words)” value [2] is given as “no cytotoxic activity” and the IC50 ([2]; resazurin, triplicate) is given as > 200000 nM. For the same compound, the “cytotoxic activity against MCF-7 (in words)” value [3] was “no cytotoxic activity”, the IC50 ([3]; resazurin, triplicate) was > 200000 nM and the IC50 ([4]; HCC70 cells, resazurin, triplicate) was 94900 ± 1100 nM. For the same compound, the “Selectivity Index (SI) HCC70” value ([4]; listed as leonotinin (6)) was 2.108 and the “anti-inflammatory activity, LPS pathway / NF-kappa B transactivation (in words)” value (NF-kappa B) was “suppression of the transactivation of NF-kappa B”.

In the case of `CC(=O)O[C@@H]1C[C@@]2(CO2)[C@]2(CC[C@]3(C=COC3)O2)[C@]23CCC[C@](C)(C(=O)OC2)[C@H]13` [Compound 2, nepetaefolin], the IC50 [2, 5] is reported as > 200000 nM, the IC50 [2, 8] is reported as > 200000 nM and the IC50 [3, 6] is reported as > 200000 nM. For the same compound, the IC50 [3, 8] was > 200000 nM, the “cytotoxic activity against HCC70 (in words)” value ([4]; HCC70 cells) was “no activity; also recorded: no such effects” and the IC50 ([4]; HCC70 cells, resazurin, triplicate, listed as 13R-Nepetaefolin (2)) was > 200000 nM. The IC50 [4, 7] was > 200000 nM.

In the case of `CC(=O)O[C@@H]1C[C@@]2(CO2)[C@]2(CC[C@@]3(C=COC3)O2)[C@]23CCC[C@](C)(C(=O)OC2)[C@H]13` [Compound 1, 13S-nepetaefolin], the IC50 [2, 5] is reported as 26600 ± 1320 nM, the IC50 [3, 6] is reported as > 200000 nM and the “Selectivity Index (SI) MCF-7” value [3] is reported as <0.132. The IC50 ([3]; resazurin, triplicate, listed as 13S-Nepetaefolin (1)) was > 200000 nM, the IC50 [4, 7] was 24600 ± 1180 nM and the “Selectivity Index (SI) HCC70” value ([4]; listed as 13S-Nepetaefolin (1)) was 1.08. For the same compound, the “Selectivity Index (SI) HCC70” value ([4]; listed as 13S-nepetaefolin (1)) was 1.077.
